Blank lines part the entries; values can stand above or below the molecule they belong to.
How the values were obtained:
HepG2 = assay: Cytotoxicity against human HepG2 cells assessed as cell growth inhibition incubated for 72 hrs by SRB assay; format: functional, cell-based; details: HepG2, 72 h
Human adenovirus 7 = assay: Antiviral activity against Human adenovirus 7 infected in human HEp-2 cells assessed as reduction in viral growth incubated for 0.5 hrs followed by cell infection measured after 1 hr by crystal violet staining based assay relative to control; format: functional; set-up: scale not given: the % may be the effect or the level left; details: time 1.5 hrs
Hepatovirus A = assay: Antiviral activity against Hepatitis A virus HM175 infected in monkey FRhK-4 cells assessed as reduction in viral growth incubated for 0.5 hrs followed by cell infection measured after 1 hr by crystal violet staining based assay relative to control; format: functional; set-up: scale not given: the % may be the effect or the level left; details: time 1.5 hrs
Coxsackievirus B4 = assay: Antiviral activity against Coxsackievirus B4 infected in African green monkey BGM cells assessed as reduction in viral growth incubated for 0.5 hrs followed by cell infection measured after 1 hr by crystal violet staining based assay relative to control; format: functional; set-up: scale not given: the % may be the effect or the level left; details: time 1.5 hrs
Human alphaherpesvirus 1 = assay: Antiviral activity against […] type 1 infected in African green monkey Vero cells assessed as reduction in viral growth incubated for 0.5 hrs followed by cell infection measured after 1 hr by crystal violet staining based assay relative to control; format: functional; set-up: scale not given: the % may be the effect or the level left; details: time 1.5 hrs
[1] = Inhibition of HIV reverse transcriptase; set-up: species or system Human immunodeficiency virus
[2] = Inhibition of quorum sensing system in Pseudomonas aeruginosa assessed as reduction in LasI gene expression measured per well
[3] = molecular target: Human immunodeficiency virus type 1 reverse transcriptase (Human immunodeficiency virus 1, UniProt Q72547); assay: Inhibition of HIV-1 reverse transcriptase using rC.dG as primer/template
[4] = molecular target: Coagulation factor VII/tissue factor (Homo sapiens, UniProt P08709); assay: Inhibition of TF/VIIA complex (unknown origin); format: protein-complex assay
Sequence of Coagulation factor VII/tissue factor (P08709 61-212 limits assumed): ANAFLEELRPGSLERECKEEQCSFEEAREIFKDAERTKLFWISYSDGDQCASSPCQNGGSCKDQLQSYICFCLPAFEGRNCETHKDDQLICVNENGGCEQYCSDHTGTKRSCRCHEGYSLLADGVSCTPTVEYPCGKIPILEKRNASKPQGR
Sequence of Coagulation factor VII/tissue factor (P08709 213-466 limits assumed): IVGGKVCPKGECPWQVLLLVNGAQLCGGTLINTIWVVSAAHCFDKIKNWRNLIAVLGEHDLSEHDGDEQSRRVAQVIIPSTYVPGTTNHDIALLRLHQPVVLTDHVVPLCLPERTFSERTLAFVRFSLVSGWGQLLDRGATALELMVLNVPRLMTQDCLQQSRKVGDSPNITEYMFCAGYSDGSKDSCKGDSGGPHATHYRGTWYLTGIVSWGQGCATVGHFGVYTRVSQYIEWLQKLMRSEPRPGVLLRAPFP
Sequence of Coagulation factor VII/tissue factor (P13726 33-295 partner limits assumed): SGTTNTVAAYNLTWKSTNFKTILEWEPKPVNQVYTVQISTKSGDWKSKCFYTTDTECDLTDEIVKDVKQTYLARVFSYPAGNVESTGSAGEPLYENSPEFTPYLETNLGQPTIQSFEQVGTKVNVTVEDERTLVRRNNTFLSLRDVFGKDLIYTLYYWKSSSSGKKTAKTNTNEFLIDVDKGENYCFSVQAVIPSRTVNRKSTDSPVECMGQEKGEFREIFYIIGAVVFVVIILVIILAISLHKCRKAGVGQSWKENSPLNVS

Escherichia coli = assay: Antibacterial activity against Escherichia coli assessed as zone of inhibition incubated for 24 hrs by well diffusion assay; format: functional
Aspergillus niger = assay: Antifungal activity against Aspergillus niger assessed as zone of inhibition incubated for 24 hrs by well diffusion assay; format: functional
Bacillus subtilis = assay: Antibacterial activity against Bacillus subtilis assessed as zone of inhibition incubated for 24 hrs by well diffusion assay; format: functional
Staphylococcus aureus = assay: Antibacterial activity against Staphylococcus aureus assessed as zone of inhibition incubated for 24 hrs by well diffusion assay; format: functional
[5] = molecular target: Interleukin-6 (Homo sapiens) (UniProt P05231); assay: Inhibition of IL-6 (unknown origin) relative to control; details: concentration not given here
Sequence of Interleukin-6 (Homo sapiens) (P05231 whole entry): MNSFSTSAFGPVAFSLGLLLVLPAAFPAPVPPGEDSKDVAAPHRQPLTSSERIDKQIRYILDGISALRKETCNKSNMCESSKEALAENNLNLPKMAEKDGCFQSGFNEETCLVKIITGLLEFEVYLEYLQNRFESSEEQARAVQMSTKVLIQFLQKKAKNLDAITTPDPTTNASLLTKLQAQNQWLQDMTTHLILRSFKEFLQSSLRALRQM

Structure (SMILES): COC(=O)c1ccccc1-n1c(N)c(C(N)=O)c(-c2ccc(C)cc2)cc1=O
- IC50 (HepG2): 1340 nM

Structure (SMILES): N#Cc1cc(-c2nc3ccccc3s2)c(=O)n(NS(=O)(=O)c2ccccc2)c1N
- Activity (Human adenovirus 7): <=70%
- Activity (Hepatovirus A): <=70%
- Activity (Coxsackievirus B4): <=70%
- Activity (Human alphaherpesvirus 1): <=70%

Structure (SMILES): CCc1cc(NCc2cc3ccccc3o2)c(O)nc1C
- IC50 [3]: 0.33 nM

Structure (SMILES): O=c1c(-c2nc3ccccc3s2)cc2c(n1NS(=O)(=O)c1ccc(Cl)cc1)CCCC2
- Activity (Human adenovirus 7): <=70%
- Activity (Hepatovirus A): <=70%
- Activity (Coxsackievirus B4): <=70%
- Activity (Human alphaherpesvirus 1): <=70%

Structure (SMILES): Cc1[nH]c(=O)c(C#N)c(-c2ccccc2Br)c1C(=O)Nc1ccccc1
- diameter of the inhibition zone (DIZ) (Escherichia coli): 3.75 mm
- diameter of the inhibition zone (DIZ) (Aspergillus niger): 3 mm
- diameter of the inhibition zone (DIZ) (Bacillus subtilis): 3.5 mm
- diameter of the inhibition zone (DIZ) (Staphylococcus aureus): 4.25 mm

Structure (SMILES): Cc1ccc(S(=O)(=O)Nn2c3c(cc(-c4nc5ccccc5s4)c2=O)CCCC3)cc1
- Activity (Human adenovirus 7): <=70%
- Activity (Hepatovirus A): <=70%
- Activity (Coxsackievirus B4): <=70%
- Activity (Human alphaherpesvirus 1): <=70%

Structure (SMILES): COC(=O)c1ccccc1-n1c(N)c(C#N)c(-c2ccc(N(C)C)cc2)cc1=O
- IC50 (HepG2): 2410 nM

Continued, values first:

- IC50 [1]: 0.058 nM
Structure (SMILES): CCc1cc(NCN2C(=O)c3ccccc3C2=O)c(O)nc1C

- MIC [2]: 6.35 µg
Structure (SMILES): CC[C@@H](C)c1cc(O)c(C)c(=O)[nH]1

- IC50 [4]: 118 nM
Structure (SMILES): CC(C)Nc1ccc(-c2cc(C(=O)O)cc([N+](=O)[O-])c2)n(CC(=O)NCc2ccc(C(=N)N)cc2)c1=O

- IC50 [1]: 6.2 nM
Structure (SMILES): CCc1cc(CCN2C(=O)c3ccccc3C2=O)c(O)nc1C

- MIC [2]: 6.35 µg
Structure (SMILES): Cc1c(O)cc(CC(C)C)[nH]c1=O

- MIC [2]: 6.35 µg
Structure (SMILES): CCCc1cc(O)c(CC)c(=O)[nH]1

- IC50 [4]: 52 nM
Structure (SMILES): CC(C)Nc1ccc(-c2cc(N)cc([N+](=O)[O-])c2)n(CC(=O)NCc2ccc(C(=N)N)cc2)c1=O

- inhibition [5]: 65.1%
Structure (SMILES): COc1ccc(-c2c(C(=O)Nc3ccc(O)cc3)c(N)[nH]c(=O)c2C#N)cc1

- MIC [2]: 6.35 µg
Structure (SMILES): CCc1c(O)cc(C(C)C)[nH]c1=O

From ChEMBL document CHEMBL5126538, “A score years' update in the synthesis and biological evaluation of medicinally important 2-pyridones” (Eur J Med Chem, 2022)
